Data reported in US20240246964A1 (Arbutus Biopharma Corporation, priority 2021, published 2024).

Target: human PD-L1 (Homo sapiens (Human), UniProt Q9NZQ7)
Assay: T cell activation luciferase reporter cell culture system (T Cell Activation Assay)
Format: cell-based
Details: luciferase reporter assay; PD-L1 aAPC/CHO-K1 cells with PD-1 effector Jurkat T cells

Chain of human PD-L1 (Q9NZQ7 19-290): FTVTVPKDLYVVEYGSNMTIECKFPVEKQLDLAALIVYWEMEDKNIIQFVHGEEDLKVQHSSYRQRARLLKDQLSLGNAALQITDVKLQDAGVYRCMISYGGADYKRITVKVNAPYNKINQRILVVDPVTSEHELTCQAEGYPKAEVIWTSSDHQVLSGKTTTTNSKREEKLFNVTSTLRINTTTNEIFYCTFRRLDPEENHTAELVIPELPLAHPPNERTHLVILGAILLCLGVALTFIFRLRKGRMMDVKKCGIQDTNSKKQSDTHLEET

Row | EC50 [nM] | Compound
1 | 25 | COc1cc(-c2nccc(-c3cccc(-c4ccc(CNC5CCOCC5)c(OC)n4)c3Cl)c2Cl)ccc1CN1CC2(CNC(=O)C2)C1 [Example 506, 2-(4-(3-Chloro-4-(2-chloro-3-(6-methoxy-5-(((tetrahydro-2H-pyran-4-yl)amino)methyl)pyridin-2-yl)phenyl)pyridin-2-yl)-2-methoxybenzyl)-2,6-diazaspiro[3.4]octan-7-one]
2 | 45.2 | COc1cc(-c2nccc(-c3cccc(-c4ccc(CNC5CCN(C(C)=O)CC5)c(OC)n4)c3Cl)c2Cl)ccc1CN1CCC[C@H](O)C1 [Example 507, (S)-1-(4-(((6-(2-Chloro-3-(3-chloro-2-(4-((3-hydroxypiperidin-1-yl)methyl)-3-methoxyphenyl)pyridin-4-yl)phenyl)-2-methoxypyridin-3-yl)methyl)amino)piperidin-1-yl)ethan-1-one]
3 | 35.1 | COc1cc(-c2nccc(-c3cccc(-c4ccc(CNC5CCN(C(C)=O)CC5)c(OC)n4)c3Cl)c2Cl)ccc1CN1CCC(CO)CC1 [Example 508, 1-(4-(((6-(2-Chloro-3-(3-chloro-2-(4-((4-(hydroxymethyl)piperidin-1-yl)methyl)-3-methoxyphenyl)pyridin-4-yl)phenyl)-2-methoxypyridin-3-yl)methyl)amino)piperidin-1-yl)ethan-1-one]
4 | 27 | COCC(=O)N1CCC(NCc2ccc(-c3cccc(-c4ccnc(-c5ccc(CN6CCC(O)CC6)c(OC)c5)c4Cl)c3Cl)nc2OC)CC1 [Example 510, 1-(4-(((6-(2-Chloro-3-(3-chloro-2-(4-((4-hydroxypiperidin-1-yl)methyl)-3-methoxyphenyl)pyridin-4-yl)phenyl)-2-methoxypyridin-3-yl)methyl)amino)piperidin-1-yl)-2-methoxyethan-1-one]
5 | 20.7 | COc1cc(-c2nccc(-c3cccc(-c4ccc(CN5CC6(C5)CN(C(C)=O)C6)c(OC)n4)c3Cl)c2Cl)ccc1CNC1CCOCC1 [Example 511, 1-(6-((6-(2-Chloro-3-(3-chloro-2-(3-methoxy-4-(((tetrahydro-2H-pyran-4-yl)amino)methyl)phenyl)pyridin-4-yl)phenyl)-2-methoxypyridin-3-yl)methyl)-2,6-diazaspiro[3.3]heptan-2-yl)ethan-1-one]
6 | 32.8 | COc1cc(-c2nccc(-c3cccc(-c4ccc(CNC5CCN(C(C)=O)CC5)c(OC)n4)c3Cl)c2Cl)ccc1CNCC1(O)CC1 [Example 512, 1-(4-(((6-(2-Chloro-3-(3-chloro-2-(4-((((1-hydroxycyclopropyl)methyl)amino)methyl)-3-methoxyphenyl)pyridin-4-yl)phenyl)-2-methoxypyridin-3-yl)methyl)amino)piperidin-1-yl)ethan-1-one]
7 | 94.5 | COc1cc(-c2nccc(-c3cccc(-c4ccc(CNC(C)C)c(OC)n4)c3Cl)c2Cl)ccc1CNC(C)C [Example 514, N-((6-(2-Chloro-3-(3-chloro-2-(4-((isopropylamino)methyl)-3-methoxyphenyl)pyridin-4-yl)phenyl)-2-methoxypyridin-3-yl)methyl)propan-2-amine]
8 | 17.8 | COc1cc(-c2nccc(-c3cccc(-c4ccc(CN[C@H]5CC[C@H](O)CC5)c(OC)n4)c3Cl)c2Cl)ccc1CN1CC2(CNC(=O)C2)C1 [Example 515, 2-(4-(3-Chloro-4-(2-chloro-3-(5-((((1r,4r)-4-hydroxycyclohexyl)-amino)methyl)-6-methoxypyridin-2-yl)phenyl)pyridin-2-yl)-2-methoxybenzyl)-2,6-diazaspiro[3.4]octan-7-one]
9 | 66.6 | COc1cc(-c2nccc(-c3cccc(-c4ccc(CN5CC6(CNC6)C5)c(OC)n4)c3Cl)c2Cl)ccc1CN1CC2(CNC(=O)C2)C1 [Example 520, 2-(4-(4-(3-(5-((2,6-Diazaspiro[3.3]heptan-2-yl)methyl)-6-methoxypyridin-2-yl)-2-chlorophenyl)-3-chloropyridin-2-yl)-2-methoxybenzyl)-2,6-diazaspiro[3.4]octan-7-one]
10 | 8.63 | COc1cc(-c2nccc(-c3cccc(-c4ccc(CN5CC6(CC(O)C6)C5)c(OC)n4)c3Cl)c2Cl)ccc1CN1CC2(CNC(=O)C2)C1 [Example 521, 2-(4-(3-Chloro-4-(2-chloro-3-(5-((6-hydroxy-2-azaspiro[3.3]heptan-2-yl)methyl)-6-methoxypyridin-2-yl)phenyl)pyridin-2-yl)-2-methoxybenzyl)-2,6-diazaspiro[3.4]octan-7-one]
11 | 92.4 | COc1cc(-c2ncnc(-c3cccc(-c4ccc(CNC[C@@H]5CCC(=O)N5)c(OC)n4)c3Cl)c2C)ccc1CNC[C@@H]1CCC(=O)N1 [Example 523, (S)-5-((((6-(2-Chloro-3-(6-(3-methoxy-4-(((((S)-5-oxopyrrolidin-2-yl)methyl)amino)methyl)phenyl)-5-methylpyrimidin-4-yl)phenyl)-2-methoxypyridin-3-yl)methyl)amino)methyl)pyrrolidin-2-one]
12 | 347 | COc1cc(-c2nccc(-c3cccc(-c4ccc(CNC5CCCCC5)c(OC)n4)c3Cl)c2Cl)ccc1CNC1CCCCC1 [Example 524, N-((6-(2-Chloro-3-(3-chloro-2-(4-((cyclohexylamino)methyl)-3-methoxyphenyl)pyridin-4-yl)phenyl)-2-methoxypyridin-3-yl)methyl)cyclohexanamine]
13 | 56.7 | COc1cc(-c2nccc(-c3cccc(-c4ccc(CN5CC6(CCNC6=O)C5)c(OC)n4)c3Cl)c2Cl)ccc1CNC1CCN(C(C)=O)CC1 [Example 525, 2-((6-(3-(2-(4-(((1-Acetylpiperidin-4-yl)amino)methyl)-3-methoxyphenyl)-3-chloropyridin-4-yl)-2-chlorophenyl)-2-methoxypyridin-3-yl)methyl)-2,6-diazaspiro[3.4] octan-5-one]
14 | 30.3 | COc1cc(-c2nccc(-c3cccc(-c4ccc(CN5CC6(CNC(=O)N6)C5)c(OC)n4)c3Cl)c2Cl)ccc1CNC1CCN(C(C)=O)CC1 [Example 526, 2-((6-(3-(2-(4-(((1-Acetylpiperidin-4-yl)amino)methyl)-3-methoxyphenyl)-3-chloropyridin-4-yl)-2-chlorophenyl)-2-methoxypyridin-3-yl)methyl)-2,5,7-triazaspiro[3.4]octan-6-one]
15 | 14.4 | COc1nc(-c2ccnc(-c3cccc4c3CC[C@@H]4Oc3nc(OC)c(CNC4CCN(C(C)=O)CC4)cc3C(F)(F)F)c2Cl)ccc1CNC[C@@H]1CCC(=O)N1 [Example 527, (S)-5-((((2′-((S)-1-((5-(((1-acetylpiperidin-4-yl)amino)methyl)-6-methoxy-3-(trifluoromethyl)pyridin-2-yl)oxy)-2,3-dihydro-1H-inden-4-yl)-3′-chloro-6-methoxy-[2,4′-bipyridin]-5-yl)methyl)amino)methyl)pyrrolidin-2-one]
16 | ≥ 10000 | COc1cc(-c2nccc(-c3cccc(-c4ccc(CNC5CCN(C(C)=O)CC5)c(OC)n4)c3C(F)(F)F)c2Cl)ccc1CNC1CCN(C(C)=O)CC1 [Example 528, 1-(4-(((6-(3-(2-(4-(((1-Acetylpiperidin-4-yl)amino)methyl)-3-methoxyphenyl)-3-chloropyridin-4-yl)-2-(trifluoromethyl)phenyl)-2-methoxypyridin-3-yl)methyl)amino)piperidin-1-yl)ethan-1-one]
17 | 41.3 | COc1cc(-c2nccc(-c3cccc(-c4ccc(CN5CC6(CCOCC6)C5)c(OC)n4)c3Cl)c2Cl)ccc1CNC1CCOCC1 [Example 531, N-(4-(4-(3-(5-((7-oxa-2-azaspiro[3.5]nonan-2-yl)methyl)-6-methoxypyridin-2-yl)-2-chlorophenyl)-3-chloropyridin-2-yl)-2-methoxybenzyl)tetrahydro-2H-pyran-4-amine]
18 | 143 | COc1nc(N[C@H]2CCc3c(-c4nccc(-c5ccc6c(CNC[C@@H]7CCC(=O)N7)cn(C)c6n5)c4Cl)cccc32)c(C(F)(F)F)nc1CNC[C@@H]1CCC(=O)N1 [Example 532, (S)-5-((((6-(3-Chloro-2-((S)-1-((6-methoxy-5-(((((S)-5-oxopyrrolidin-2-yl)methyl)amino)methyl)-3-(trifluoromethyl)pyrazin-2-yl)amino)-2,3-dihydro-1H-inden-4-yl)pyridin-4-yl)-1-methyl-1H-pyrrolo[2,3-b]pyridin-3-yl)methyl)amino)methyl)pyrrolidin-2-one]
19 | 13.5 | COc1cc(-c2nccc(-c3cccc(-c4ccc(CNC5CCN(C(=O)CO)CC5)c(OC)n4)c3Cl)c2Cl)ccc1CNC1CCN(C(C)=O)CC1 [Example 533, 1-(4-(((6-(3-(2-(4-(((1-Acetylpiperidin-4-yl)amino)methyl)-3-methoxyphenyl)-3-chloropyridin-4-yl)-2-chlorophenyl)-2-methoxypyridin-3-yl)methyl)amino)piperidin-1-yl)-2-hydroxyethan-1-one]
20 | 56.7 | COc1cc(-c2nccc(-c3cccc(-c4ccc(CNCCCF)c(OC)n4)c3Cl)c2Cl)ccc1CNCCCF [Example 534, N-((6-(2-Chloro-3-(3-chloro-2-(4-(((3-fluoropropyl)amino)methyl)-3-methoxyphenyl)pyridin-4-yl)phenyl)-2-methoxypyridin-3-yl)methyl)-3-fluoropropan-1-amine]
21 | 1060 | COc1cc(-c2ncnc(-c3cccc(-c4ccc(CN5CC6(CNC(=O)C6)C5)c(OC)n4)c3Cl)c2C)ccc1CN1CC2(CNC(=O)C2)C1 [Example 535, 2-((6-(2-Chloro-3-(6-(3-methoxy-4-((7-oxo-2,6-diazaspiro[3.4]octan-2-yl)methyl)phenyl)-5-methylpyrimidin-4-yl)phenyl)-2-methoxypyridin-3-yl)methyl)-2,6-diazaspiro[3.4]octan-7-one]
22 | 41.6 | COc1cc(-c2nccc(-c3cccc(-c4ccc(CNC5CCN(C(C)=O)CC5)c(OC)n4)c3Cl)c2Cl)ccc1CNCCCF [Example 537, 1-(4-(((6-(2-Chloro-3-(3-chloro-2-(4-(((3-fluoropropyl)amino)methyl)-3-methoxyphenyl)pyridin-4-yl)phenyl)-2-methoxypyridin-3-yl)methyl)amino)piperidin-1-yl)ethan-1-one]

Row | Compound | EC50 [nM]
23 | COc1cc(-c2nccc(-c3cccc(-c4ccc(CN[C@H]5CC[C@@H](O)CC5)c(OC)n4)c3Cl)c2Cl)ccc1CN1CC2(CNC(=O)C2)C1 [Example 516, 2-(4-(3-Chloro-4-(2-chloro-3-(5-((((1s,4s)-4-hydroxycyclohexyl)amino)-methyl)-6-methoxypyridin-2-yl)phenyl)pyridin-2-yl)-2-methoxybenzyl)-2,6-diazaspiro[3.4]octan-7-one] | 50.4
